Active and inactive are the calls of the source. No cut-off for these calls is given here.

Assay [1] concerns Staphylococcus aureus. Nature of the assay: Antimicrobial activity against Staphylococcus aureus ATCC 12600 assessed as zone of inhibition at 60 ug incubated overnight by agar well diffusion assay. The assay is classed as functional. Conditions: read-out: DIZ. For orientation: In agar diffusion tests the substance spreads into inoculated agar from a disc or well.
The test system of assay [2] is Staphylococcus epidermidis. Nature of the assay: Antimicrobial activity against Staphylococcus epidermidis ATCC 14990 assessed as zone of inhibition at 60 ug incubated overnight by agar well diffusion assay. Type of assay: functional. Conditions: read-out: DIZ.
Assay [3] deals with Candida albicans. Nature of the assay: Antibiofilm activity against Candida albicans assessed as reduction in biofilm formation at 100 uM incubated for 48 hrs by XTT biofilm assay. Type of assay: functional, organism-based. Background: Tetrazolium dyes change colour on reduction, which living cells bring about.

As for `CC(=O)OCCCCCCCCCCc1cc(=O)c2ccccc2[nH]1`, the zone of inhibition at 60 µg/disc in assay [1] and in assay [2] was 10 mm each time.
As for `CC1(C)S[C@@H]2[C@H](NC(=O)Cc3ccccc3)C(=O)N2[C@H]1C(=O)O` [PENICILLIN G], the figures for the zone of inhibition at 60 µg/disc in assay [1] and in assay [2] were 41 mm and 38 mm, respectively.
In the case of `O=c1cc(CCCCCCCCCO)[nH]c2ccccc12`, in assay [3], the outcome was inactive. For the same compound, the zone of inhibition at 60 µg/disc in assay [1] and in assay [2] was 0 mm throughout.
For the compound `CC(=O)OCCCCCCCCCc1cc(=O)c2ccccc2[nH]1`, the zone of inhibition at 60 µg/disc in assay [1] and in assay [2] was 11 mm throughout.
As to `O=c1cc(CCCCCCCO)[nH]c2ccccc12`, the result in assay [3] was inactive. Further, the zone of inhibition at 60 µg/disc in assay [1] and in assay [2] was 0 mm each time.
On to `CCCCCCCc1cc(=O)c2ccccc2[nH]1`, for which the result in assay [3] was Active. In addition, the zone of inhibition at 60 µg/disc in assay [1] and in assay [2] was 13 mm each time.
On to `CC(=O)OCCCCCCCCc1cc(=O)c2ccccc2[nH]1`, for which the zone of inhibition at 60 µg/disc in assay [1] and in assay [2] was 9 mm throughout.
`CCCCCc1cc(O)c2ccccc2n1`: the outcome in assay [3] was Active. The zone of inhibition at 60 µg/disc came out at 13 mm in assay [1] and 14 mm in assay [2].
`O=c1cc(CCCCCCCCO)[nH]c2ccccc12`: the zone of inhibition at 60 µg/disc in assay [1] and in assay [2] was 0 mm in each case.
Regarding `CCCCCCCCCCc1cc(=O)c2ccccc2[nH]1`, the result in assay [3] was Active. The zone of inhibition at 60 µg/disc in assay [1] is 10 mm; in assay [2], 12 mm.
For `CCCCCCCCc1cc(=O)c2ccccc2[nH]1`, the result in assay [3] was Active. Further, the values for the zone of inhibition at 60 µg/disc in assay [1] and in assay [2] were 11 mm and 12 mm, respectively.
Consider `O=c1cc(CCCCCCCCCCO)[nH]c2ccccc12`, for which the result in assay [3] was inactive. The zone of inhibition at 60 µg/disc in assay [1] and in assay [2] was 0 mm in each case.
`CC(=O)OCCCCCCCc1cc(=O)c2ccccc2[nH]1`: the zone of inhibition at 60 µg/disc was 8 mm in assay [1] and 7 mm in assay [2].
In the case of `CCCCCCCCCc1cc(=O)c2ccccc2[nH]1`, in assay [3], the outcome was Active. Besides, the zone of inhibition at 60 µg/disc in assay [1] and in assay [2] was 12 mm in each case.

Source of the values: ChEMBL document CHEMBL5370668, “Expected and Unexpected Products from the Biochemical Oxidation of Bacterial Alkylquinolones with CYP4F11” (2023).
